What was measured:
[1] = system: wild-type DC 2.4 cells and Cd274 knockout DC 2.4 cells; test: Internalization and selectivity in DC cells, IncuCyte intensity-time curves with FBS or mouse serum blocking; format: cell-based
Protocol: The total red object integrated intensity-time variation curves for anti-PD-L1 THIOMAB labeled with pHrodo™ red dye in the wild-type DC 2.4 cell line and the Cd274 knockout DC 2.4 cell line. […] After addition of labeled anti-PD-L1 antibody, incubation was performed for 30 minutes at 4° C. to allow complete binding of antigen and antibody. The internalization of the antibodies was then analyzed by using the IncuCyte® viable cell system. A. Cells were cultured in a culture medium containing 10% FBS. B. Cells were cultured in a culture medium containing 10% mouse serum. C. After 6 hours, high-definition phase images, red fluorescence images and combined images of DC 2.4 cells were collected by using the IncuCyte® viable cell system. Student's t test was used to compare significant differences between the groups, and p<0.0001 is represented by ****.
To verify this hypothesis, the inventors used 10% mouse serum and 10% FBS as blocking agents which were added to cell culture media in groups, respectively. Relative to FBS, murine IgG enriched in mouse serum could block Fcγ receptors on the surface of DC 2.4 more effectively, thereby inhibiting the antibody internalization process mediated by Fcγ receptors on DC cells. […]

[2] = target: T1, PD-L1 on MC38 cell surfaces (Mus musculus, UniProt Q9EP73); test: FACS detection of antigen-binding capacity on PD-L1 positive MC38 cells (FITC secondary antibody)
T1 construct: endogenous in cells; host or cells: MC38 cells
Protocol: MC38 cells were treated with anti-PD-L1 antibody, anti-PD-L1 THIOMAB and ADC HE-S2, and then stained with FITC-labeled goat anti-human secondary antibody; the FITC signal intensity on MC38 surfaces was analyzed by FACS technique detection. A. The histograms of different colors represent, from top to bottom, the fluorescence signals measured for the negative control (NC) group, the secondary antibody group, the anti-PD-L1 antibody group, the anti-PD-L1 THIOMAB group, and the ADC HE-S2 group, respectively. B. Mean fluorescence intensity (MFI) measured after treatment with different antibody-based drugs on MC38. NC group: the negative control only added with the isotype antibody, with no secondary antibody added for staining; secondary antibody group: the control group added with the isotype antibody and stained with fluorescent secondary antibody. […]
With PD-L1 positive MC38 as a platform, the inventors verified whether ADC HE-S2 and the gene-modified anti-PD-L1 THIOMAB retained the original antibody-antigen binding capacity by using a fluorescence activated cell sorting (FACS) technique. […] The stained MC38 cells were analyzed on a BD FACSAria™ III flow cytometer, and the strength of FITC fluorescence signals on MC38 cells treated with different antibody-based drugs was detected and compared, so as to characterize the affinity of ADC, THIOMAB and antibodies to PD-L1.

MC38 tumor = test: Anti-tumor activity and survival in MC38 mouse tumor model; format: in vivo; settings: MC38 mice, i.p.; antibody drugs 150 μg per mouse, D18 25 μg per mouse; schedule Table 1
Excerpt: A. Treatment with ADC HE-S2, single administration of anti-PD-L1 antibody, D18, or anti-PD-L1 THIOMAB, and anti-PD-L1 antibody/D18 combined administration for inhibitory activity against mouse MC38 tumor growth. B. Whole animal survival study. The ordinate of the curve represents the percentage of tumor-bearing mice that remained alive after different days, and the abscissa thereof represents the number of experimental days. C. Treatment with ADC HE-S2, single administration of anti-PD-L1 antibody, D18, or anti-PD-L1 THIOMAB, and anti-PD-L1 antibody/D18 combined administration for inhibitory activity against mouse MC38 tumor growth. Student's t test was used to compare significant differences between the groups, and p<0.001 is represented by ***.
To verify the anti-cancer activity of ADC HE-S2, the inventors first made a mouse model with MC38. After the tumor was loaded, a visible tumor could be observed on the mouse surface for about one week. When the mean tumor tissue volume of the mice reached 100 mm^3, the mice were randomly grouped as follows according to the final type of drug administered: IgG isotype control antibody group (abbreviated as IgG), anti-PD-L1 antibody group (anti-PD-L1), anti-PD-L1 THIOMAB group (Thiomab), D18 group (D18), D18/anti-PD-L1 antibody combination treatment group (anti-PD-L1 & D18), and ADC HE-S2 group (ADC HE-S2), with 7-8 mice per group. The IgG isotype control antibody group, the anti-PD-L1 antibody (i.e., avelumab as described in Example 2) group, and the anti-PD-L1 THIOMAB (i.e., mutant antibody prepared in Example 2) group were administered twice a week via intraperitoneal injection of 150 μg per mouse for each time. The D18 group was administered twice a week via intraperitoneal injection of 25 μg per mouse for each time. In the D18/anti-PD-L1 antibody combination treatment group, the anti-PD-L1 antibody was dosed twice a week, 150 μg per mouse for each time; the D18 was dosed […], 25 μg per mouse for each time; in the ADC HE-S2 group, ADC HE-S2 was dosed once a week via intraperitoneal injection of 150 μg per mouse for each time; the anti-PD-L1 antibody was dosed once a week, staggered from the administration of the ADC, via intraperitoneal injection of 150 μg per mouse for each time.
Dosage: Antibody drugs, administered 150 μg per mouse for each time, and D18, administered 25 μg per mouse for each time. - means no administration on the day. * Only mice with MC38 tumor model were allowed to be administered until the 24th day, and mice with B16 tumor model were no longer administered after the 21st day.

T1 sequence (Q9EP73 19-290): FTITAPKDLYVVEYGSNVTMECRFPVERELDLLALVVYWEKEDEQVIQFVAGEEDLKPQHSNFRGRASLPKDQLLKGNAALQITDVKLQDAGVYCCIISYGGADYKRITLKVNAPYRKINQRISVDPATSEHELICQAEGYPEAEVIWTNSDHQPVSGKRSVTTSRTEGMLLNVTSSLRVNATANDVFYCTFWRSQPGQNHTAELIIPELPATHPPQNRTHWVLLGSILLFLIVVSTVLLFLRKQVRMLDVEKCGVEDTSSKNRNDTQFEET

anti-PD-L1 THIOMAB: mutant avelumab, light chain V205C (SEQ ID NO: 9), heavy chain SEQ ID NO: 4; pHrodo red labeled in internalization tests
fluorescence intensity variation curves, wild-type vs Cd274 knockout DC 2.4 cells ([1]; 10% FBS blocking): very similar fluorescence intensity variation curves | speed of increase in total red object integrated intensity in wild-type DC cells vs Cd274 knockout DC cells ([1]; 10% mouse serum blocking, p<0.0001): significantly higher | MFI compared with the natural anti-PD-L1 antibody (Student's t test) [2]: no significant difference | inhibitory activity against MC38 tumor growth (MC38 tumor): slightly superior to the efficacy of the IgG isotype antibody

Source: patent US20240252670A1, “ANTIBODY DRUG CONJUGATE, PREPARATION METHOD THEREFOR AND APPLICATION THEREOF” (TSINGHUA UNIVERSITY, priority 2021, published 2024)
